Measurements as given in article PMC3644400 (Investigational New Drugs, 2012).
pIC50: −log10 of the molar value. Read-outs that look alike come from different tables or passages of the source.

How the values were obtained:
HER2 = details: read-out: IC50 HER2; cited from earlier work
clinical = details: human, in vivo
ErbB4 = details: read-out: IC50 ErbB4; cited from earlier work
[1] = Phase I dose escalation: MTD and dose-limiting toxicity; format: in vivo, patients
Experimental: Docetaxel was initiated at 60 mg/m^2 IV infusion and increased to 75 mg/m^2 IV infusion in the absence of DLT.
A standard ‘3 + 3’ design was used. The MTD was defined as the highest dose of afatinib at which no more than one out of six patients experienced a DLT. Once the MTD was determined, a further 12 evaluable patients were included at the MTD level.

[2] = Plasma pharmacokinetics (HPLC tandem-mass spectrometry); details: MTD group
[3] = human, in vivo
advanced NSCLC = details: cited from earlier work; for response rate: advanced NSCLC
[4] = docetaxel (day 1) followed by intermittent erlotinib (days 2–16 every 3 weeks), previously treated advanced NSCLC; cited from earlier work
advanced solid tumors = details: intermittent high-dose gefitinib given prior to docetaxel; cited from earlier work

CN(C)C/C=C/C(=O)Nc1cc2c(Nc3ccc(F)c(Cl)c3)ncnc2cc1O[C@H]1CCOC1 [afatinib]
pIC50 (HER2): 7.85
AUC(0-t) (clinical): 995 ng·h/mL
Tmax (clinical): 4.03 h
AUC(0-t) (clinical; 75 mg/m2): 879 ng·h/mL
Cmax (clinical; Afatinib Cmax, gMean): 71.4 ng/mL
Vd/F (clinical; Afatinib Vz/F, gMean): 1500 L
maximum tolerated dose (MTD) of afatinib ([1]; afatinib days 2–4 with docetaxel 75 mg/m^2 day 1, 3-week cycles): 90 mg/day
MTD and recommended phase II dose of afatinib ([1]; once daily for 3 days following docetaxel 75 mg/m^2): 90 mg
Tmax ([2]; human, in vivo, Afatinib tmax, median, treatment cycle 1 (n = 13)): 3 h

CC(=O)O[C@@]12CO[C@@H]1C[C@H](O)[C@@]1(C)C(=O)[C@H](O)C3=C(C)[C@@H](OC(=O)[C@H](O)[C@@H](NC(=O)OC(C)(C)C)c4ccccc4)C[C@@](O)([C@@H](OC(=O)c4ccccc4)[C@H]21)C3(C)C [docetaxel]
Docetaxel AUC0–24, gMean [3]: 2680 ng·h/mL
Docetaxel AUC0–∞, gMean ratio cycle 2 to cycle 1 [3]: 118%
Docetaxel CL, gMean [3]: 682 mL/min
Docetaxel Cmax, gMean [3]: 2200 ng/mL
Docetaxel Cmax, gMean ratio cycle 2 to cycle 1 [3]: 115%
Docetaxel VSS, gMean [3]: 487 L
Docetaxel Vz, gMean [3]: 1250 L
Docetaxel tmax, median [3]: 1.00 h
half-life (clinical): 20.9 h
AUC(0-t) (clinical; Docetaxel AUC0–24, gMean): 2630 ng·h/mL
clearance (clinical; Docetaxel CL, gMean): 712 mL/min
Cmax (clinical; Docetaxel Cmax, gMean): 2070 ng/mL
Vd (clinical; Docetaxel VSS, gMean): 488 L
Vd (clinical; Docetaxel Vz, gMean): 1290 L
Tmax (clinical; Docetaxel tmax, median): 1 h
AUC(0-inf) (clinical; iv, 75 mg/m2): 3160 ng·h/mL
Docetaxel AUC0–∞, gMean ([2]; treatment cycle 2 (n = 8)): 3260 ng·h/mL
Docetaxel t1/2, gMean ([2]; treatment cycle 2 (n = 8)): 21.1 h

C#Cc1cccc(Nc2ncnc3cc(OCCOC)c(OCCOC)cc23)c1 [erlotinib]
response rate (advanced NSCLC; chemotherapy followed by erlotinib): 28%
objective response rate (advanced NSCLC; docetaxel (day 1) followed by intermittent erlotinib (days 2–16 every 3 weeks), previously treated advanced NSCLC): 35%
response rate (advanced NSCLC; high-dose erlotinib (days 1 and 2) with carboplatin and paclitaxel (day 3)): 34%
response rate (advanced NSCLC; low-dose erlotinib, same schedule with carboplatin and paclitaxel): 18%
grade 3/4 neutropenia [4]: 60%

COc1cc2ncnc(Nc3ccc(F)c(Cl)c3)c2cc1OCCCN1CCOCC1 [gefitinib]
objective response rate (advanced solid tumors): 11%
